According to patent US20170081324A1 (priority 2015, published 2017):
Where two headings read alike, the source gives them in different places.

What was measured:
[1] = test system: influenza A virus (IAV) A/Aichi/2/68 (H3N2) on MDCK cells; experiment: microbe, parasite or virus in culture; format: cell-based, influenza A virus A/Aichi/2/68 (H3N2); settings: 48 h
[2] = target: whole RNP complex (viral RNPs) of IAV strain A/PR/8/34 (Influenza A virus, UniProt P03428); experiment: biochemical
Sequence of whole RNP complex (viral RNPs) of IAV strain A/PR/8/34 (P03428 whole entry, looked up, one chain of several): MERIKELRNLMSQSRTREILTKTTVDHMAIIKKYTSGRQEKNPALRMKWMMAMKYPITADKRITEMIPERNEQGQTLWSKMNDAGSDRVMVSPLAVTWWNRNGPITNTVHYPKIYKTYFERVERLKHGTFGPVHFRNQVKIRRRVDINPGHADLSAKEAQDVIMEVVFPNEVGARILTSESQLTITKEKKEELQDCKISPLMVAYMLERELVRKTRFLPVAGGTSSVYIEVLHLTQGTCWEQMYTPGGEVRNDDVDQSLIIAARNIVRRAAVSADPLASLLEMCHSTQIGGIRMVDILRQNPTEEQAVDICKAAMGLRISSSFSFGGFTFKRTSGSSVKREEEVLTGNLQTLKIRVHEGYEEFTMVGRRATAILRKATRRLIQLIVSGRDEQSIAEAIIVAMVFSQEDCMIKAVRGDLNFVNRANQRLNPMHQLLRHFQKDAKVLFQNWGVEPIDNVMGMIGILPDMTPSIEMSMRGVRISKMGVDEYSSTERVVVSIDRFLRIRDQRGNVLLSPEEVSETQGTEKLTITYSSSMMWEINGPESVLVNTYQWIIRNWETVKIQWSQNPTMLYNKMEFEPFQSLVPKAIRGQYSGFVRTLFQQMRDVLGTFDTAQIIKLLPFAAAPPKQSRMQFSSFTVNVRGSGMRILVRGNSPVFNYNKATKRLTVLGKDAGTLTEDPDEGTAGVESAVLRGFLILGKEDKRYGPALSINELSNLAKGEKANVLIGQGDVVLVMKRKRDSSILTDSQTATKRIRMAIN

| Structure (SMILES) | IC50 ([1]; read-out: CPE) [µM] | IC50 ([1]; read-out: CPE IC50) [µM] | IC50 [2] [µM] |
| --- | --- | --- | --- |
| COC(=O)CC(Nc1nc(-c2ccc3n[nH]c(=O)n3c2)ncc1F)C1CC1 (centres unmarked) | > 50 |  |  |
| O=c1[nH]nc2ccc(-c3ncc(F)c(NCCO)n3)cn12 | > 50 |  |  |
| COC(=O)[C@@H](Nc1nc(-c2ccc3n[nH]c(=O)n3c2)ncc1F)C(C)C |  | 38.5 |  |
| O=C(N[C@@H]1CCC[C@H](Nc2nc(-c3ccc4n[nH]c(=O)n4c3)ncc2F)C1)N1CCCC1 |  | 9.1 |  |
| COC(=O)C[C@@H](Nc1nc(-c2ccc3n[nH]c(=O)n3c2)ncc1F)C(C)C | > 50 |  |  |
| O=c1[nH]nc2ccc(-c3ncc(F)c(NC4CCCCC4)n3)cn12 | > 50 |  |  |
| CC(C)[C@@H](CC(=O)O)Nc1nc(-c2ccc3n[nH]c(=O)n3c2)ncc1F | > 50 |  | > 33.3 |
| O=C(O)[C@@H]1CCC[C@H](Nc2nc(-c3ccc4n[nH]c(=O)n4c3)ncc2F)C1 | > 50 |  | 14.3 |
| O=C(O)CC(Nc1nc(-c2ccc3n[nH]c(=O)n3c2)ncc1F)C1CC1 (centres unmarked) | > 50 |  | > 25 |
| CNc1nc(-c2ccc3n[nH]c(=O)n3c2)ncc1F | > 50 |  | > 33.3 |
| CC(C)Nc1nc(-c2ccc3n[nH]c(=O)n3c2)ncc1F | > 50 |  | 44.9 |
| COC(=O)CCCCCNc1nc(-c2ccc3n[nH]c(=O)n3c2)ncc1F |  | 39.3 | > 33.3 |
| COC(=O)[C@@H]1CCC[C@H](Nc2nc(-c3ccc4n[nH]c(=O)n4c3)ncc2F)C1 | > 50 |  | > 33.3 |
| O=c1[nH]nc2ccc(-c3ncc(F)c(NCC4CC4)n3)cn12 | > 50 |  | > 33.3 |
| CC(C)[C@H](Nc1nc(-c2ccc3n[nH]c(=O)n3c2)ncc1F)C(=O)O | > 50 |  | > 33.3 |
| CC(C)C(C)Nc1nc(-c2ccc3n[nH]c(=O)n3c2)ncc1F (centres unmarked) | > 50 |  | 73.2 |
| O=C(O)CCCCCNc1nc(-c2ccc3n[nH]c(=O)n3c2)ncc1F |  | > 100 | 149 |
| O=C(N[C@@H]1CCC[C@H](Nc2nc(-c3cccc4n[nH]c(=O)n34)ncc2F)C1)N1CCCC1 [reference compound] | > 50 |  |  |
